Reference: paper PMC12168924, “Construction of the reduced nicotinamide adenine dinucleotide salvage pathway in artificial cells and its application in amino acid synthesis” (Chemical Science, 2025)

Key:
[1] = target: T1, ribose-phosphate pyrophosphokinase (RPPK) (Mycobacterium tuberculosis, UniProt P9WKE3); assay: HPLC of AMP formation, inhibition at rising ADP; type: biochemical; conditions: inhibitor; assay per b47: R-5-P, ATP, MgCl2, 40 mM KH2PO4, Tris-HCl pH 8.0, 37 °C
T1 construct: gene prs

[2] = target: T2, nicotinamide phosphoribosyltransferase (NAMPT) (Chitinophaga pinensis, UniProt A0A979FZM9); assay: HPLC of NMN formation; type: biochemical; conditions: PRPP made in situ by RPPK, 5 mM MgCl2, pH 8.0, 37 °C
T2 construct: gene Cpin_0607
T2 sequence (A0A979FZM9 1-471): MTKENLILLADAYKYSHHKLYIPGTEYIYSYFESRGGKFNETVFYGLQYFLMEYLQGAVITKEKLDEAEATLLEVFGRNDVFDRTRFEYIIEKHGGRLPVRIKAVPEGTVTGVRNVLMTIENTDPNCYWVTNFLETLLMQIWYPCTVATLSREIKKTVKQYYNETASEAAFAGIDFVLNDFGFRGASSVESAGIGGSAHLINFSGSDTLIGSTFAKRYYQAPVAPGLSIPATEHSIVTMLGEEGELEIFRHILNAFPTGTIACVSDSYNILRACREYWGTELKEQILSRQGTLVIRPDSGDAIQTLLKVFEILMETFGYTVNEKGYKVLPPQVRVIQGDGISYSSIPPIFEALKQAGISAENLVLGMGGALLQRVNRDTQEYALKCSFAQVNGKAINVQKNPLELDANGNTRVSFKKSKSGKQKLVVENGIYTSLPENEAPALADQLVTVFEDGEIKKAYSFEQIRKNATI

HPLC of NMN depletion = substrate: NC(=O)c1ccc[n+]([C@@H]2O[C@H](COP(=O)(O)O)[C@@H](O)[C@H]2O)c1; assay: HPLC of NMN depletion; type: biochemical, Acinetobacter baylyi; conditions: assay per b51: ATP, MgCl2, 40 mM KH2PO4, 50 mM Tris-HCl pH 8.0, 37 °C, kinetic details in supplement

T1 sequence (P9WKE3 whole entry): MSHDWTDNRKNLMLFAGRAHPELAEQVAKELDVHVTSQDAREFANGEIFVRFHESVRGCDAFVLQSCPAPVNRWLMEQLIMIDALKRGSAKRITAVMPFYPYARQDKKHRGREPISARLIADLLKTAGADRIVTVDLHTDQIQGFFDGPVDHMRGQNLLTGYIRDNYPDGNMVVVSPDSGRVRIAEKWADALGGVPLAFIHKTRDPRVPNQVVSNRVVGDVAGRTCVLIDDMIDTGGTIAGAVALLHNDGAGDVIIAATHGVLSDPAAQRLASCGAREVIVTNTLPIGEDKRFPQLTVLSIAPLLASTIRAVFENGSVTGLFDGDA

Molecule: Nc1ncnc2c1ncn2[C@@H]1O[C@H](COP(=O)(O)OP(=O)(O)O)[C@@H](O)[C@H]1O [ADP]
- HPLC of AMP formation, inhibition at rising ADP [1]: ADP was found to significantly inhibit RPPK activity

Molecule: O=P(O)(O)OC[C@H]1O[C@H](OP(=O)(O)OP(=O)(O)O)[C@H](O)[C@@H]1O [PRPP]
- HPLC of NMN formation [2]: PRPP, an enzyme cascade was employed to synthesize PRPP for assessing NAMPT activity

B1: nicotinamide mononucleotide adenylyltransferase (NMNAT) (Acinetobacter baylyi ADP1) (protein)
chain: MYKFDYLVFIGRFQPFHFAHLQTIQIALQQSREVIIALGSAQPERNIKNPFLAEERQKMILANFSAEDQARIHFVNIIDVYNDQKWVEQVKQLVNAIIESRSHVGLIGHFKDESSYYLKLFPEWTMVELESLKESMSATPMREAYYEGKIIESAFPEGTIQFLKTFQDSEIYKQLQQKYRAQDSSNLI
- Km (HPLC of NMN depletion): 396.6 ± 59.6 µM
